Results from ChEMBL document CHEMBL1201862, “PubChem BioAssay data set” (2004).
Active and inactive are the calls of the source.

How the values were obtained:
Vero = assay: Vero cell toxicity, dose response, cytotoxicity control, plate reader, cherry-pick samples (AID 687020); type: functional, cell-based; settings: Chlorocebus sabaeus
Steroidogenic factor 1 = Steroidogenic factor 1 (Homo sapiens, UniProt Q13285); assay: Counterscreen for inverse agonists of the liver receptor homolog-1 (LRH-1; NR5A2): Luminescence-based cell-based high throughput dose response assay to identify inverse agonists of the Steroidogenic Factor 1 Nuclear Receptor (SF1; NR5A1).; type: functional
Steroidogenic factor 1, sequence (Q13285 whole entry): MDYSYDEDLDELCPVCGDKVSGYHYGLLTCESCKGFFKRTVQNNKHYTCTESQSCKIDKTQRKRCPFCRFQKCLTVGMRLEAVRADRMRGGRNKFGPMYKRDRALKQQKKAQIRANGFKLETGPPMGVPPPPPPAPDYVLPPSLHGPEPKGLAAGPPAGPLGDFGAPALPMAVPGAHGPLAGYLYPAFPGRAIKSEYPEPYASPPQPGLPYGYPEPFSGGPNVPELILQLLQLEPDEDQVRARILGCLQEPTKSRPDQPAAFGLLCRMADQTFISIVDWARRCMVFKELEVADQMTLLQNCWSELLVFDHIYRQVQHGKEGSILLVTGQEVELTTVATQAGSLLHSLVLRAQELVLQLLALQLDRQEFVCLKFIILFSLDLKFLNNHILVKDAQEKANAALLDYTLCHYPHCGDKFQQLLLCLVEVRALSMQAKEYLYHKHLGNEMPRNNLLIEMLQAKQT

[1] = microbe, parasite or virus in culture; type: functional; settings: Mycobacterium tuberculosis
[2] = target: T1, Microphthalmia-associated transcription factor (Homo sapiens, UniProt O75030); assay: TRPM1 promoter luciferase signal decrease, dose response, MITF inhibitor project, cell-based, SK-MEL-5, cherry-picked, set 3 (AID 493073); type: functional
T1 sequence (O75030 whole entry): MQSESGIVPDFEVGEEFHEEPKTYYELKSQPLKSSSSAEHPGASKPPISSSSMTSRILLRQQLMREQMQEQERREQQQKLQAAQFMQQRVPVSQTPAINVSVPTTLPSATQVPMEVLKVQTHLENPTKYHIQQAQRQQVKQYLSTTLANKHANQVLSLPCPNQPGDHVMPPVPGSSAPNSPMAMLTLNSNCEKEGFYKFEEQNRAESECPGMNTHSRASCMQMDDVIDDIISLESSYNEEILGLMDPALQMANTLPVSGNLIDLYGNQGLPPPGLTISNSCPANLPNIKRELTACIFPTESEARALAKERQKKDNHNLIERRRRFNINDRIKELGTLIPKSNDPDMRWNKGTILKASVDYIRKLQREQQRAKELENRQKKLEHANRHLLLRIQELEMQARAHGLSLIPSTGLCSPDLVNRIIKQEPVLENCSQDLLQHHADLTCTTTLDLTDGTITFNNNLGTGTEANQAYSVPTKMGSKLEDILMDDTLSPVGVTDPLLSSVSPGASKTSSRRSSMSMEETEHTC

[3] = StAR promoter reporter inhibition counter-screen, dose response, counter-screen for LRH-1 inverse agonist project, cell-based, luminescence, luciferase reporter (AID 651969); type: functional
[4] = target: Nuclear receptor subfamily 5 group A member 2 (Homo sapiens, UniProt O00482); type: functional, cell-based;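 also: HEK293T cells transfected with LRH-1 and a StAR promoter luciferase reporter; potency for inhibitors that lower LRH-1 driven reporter light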
Nuclear receptor subfamily 5 group A member 2, sequence (O00482 whole entry): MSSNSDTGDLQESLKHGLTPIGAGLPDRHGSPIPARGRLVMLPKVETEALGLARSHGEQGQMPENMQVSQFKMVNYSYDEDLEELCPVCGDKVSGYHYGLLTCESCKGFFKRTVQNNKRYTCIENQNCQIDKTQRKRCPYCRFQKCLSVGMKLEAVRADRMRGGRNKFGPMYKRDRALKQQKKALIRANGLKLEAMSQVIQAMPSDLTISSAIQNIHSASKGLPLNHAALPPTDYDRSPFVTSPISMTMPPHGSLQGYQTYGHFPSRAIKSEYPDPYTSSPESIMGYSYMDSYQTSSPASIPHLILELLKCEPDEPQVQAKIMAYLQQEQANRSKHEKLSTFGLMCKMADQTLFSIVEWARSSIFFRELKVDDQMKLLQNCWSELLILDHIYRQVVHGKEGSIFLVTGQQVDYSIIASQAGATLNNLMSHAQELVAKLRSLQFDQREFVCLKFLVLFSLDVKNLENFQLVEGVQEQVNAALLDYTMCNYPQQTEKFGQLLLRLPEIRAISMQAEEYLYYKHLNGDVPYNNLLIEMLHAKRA

[5] = target: T2, Corticotropin-releasing factor receptor 2/Corticotropin-releasing factor-binding protein (Homo sapiens, UniProt P24387+Q13324); assay: Dose Response confirmation of uHTS hits for small molecule antagonists of the CRF-binding protein and CRF-R2 receptor complex.; type: functional; settings: read-out: IC50_Mean
T2 sequence (Q13324 whole entry): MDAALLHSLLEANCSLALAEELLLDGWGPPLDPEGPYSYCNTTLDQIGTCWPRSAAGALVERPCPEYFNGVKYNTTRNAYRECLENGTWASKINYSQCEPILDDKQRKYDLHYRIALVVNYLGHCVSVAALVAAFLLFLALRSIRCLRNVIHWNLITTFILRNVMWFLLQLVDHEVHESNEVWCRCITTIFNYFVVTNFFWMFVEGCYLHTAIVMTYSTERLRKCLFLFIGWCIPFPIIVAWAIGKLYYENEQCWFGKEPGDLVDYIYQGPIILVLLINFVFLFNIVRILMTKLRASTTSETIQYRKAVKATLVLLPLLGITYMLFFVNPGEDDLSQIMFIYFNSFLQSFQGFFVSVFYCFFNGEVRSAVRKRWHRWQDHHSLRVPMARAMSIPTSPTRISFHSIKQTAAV
T2 sequence (P24387 whole entry): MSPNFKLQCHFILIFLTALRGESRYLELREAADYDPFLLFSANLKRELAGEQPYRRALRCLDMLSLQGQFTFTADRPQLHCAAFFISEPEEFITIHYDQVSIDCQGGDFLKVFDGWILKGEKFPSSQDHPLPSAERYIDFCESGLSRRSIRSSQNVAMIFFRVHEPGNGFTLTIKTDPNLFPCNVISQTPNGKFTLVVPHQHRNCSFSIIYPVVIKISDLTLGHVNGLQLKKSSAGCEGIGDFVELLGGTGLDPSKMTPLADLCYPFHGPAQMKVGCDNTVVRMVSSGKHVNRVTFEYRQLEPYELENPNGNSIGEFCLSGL

[6] = CRF-BP/CRF-R2 complex antagonists, dose response, cell-based, uHTS hits, 384-well (AID 651639); type: functional, Homo sapiens; settings: read-out: IC50_Mean
[7] = target: T2, Corticotropin-releasing factor receptor 2/Corticotropin-releasing factor-binding protein; assay: activators of CRF receptor 2 with binding protein – uHTS hits, confirmation (AID 602473); type: functional; settings: read-out: EC50_Mean
[8] = target: T3, Methionyl-tRNA synthetase, putative (Trypanosoma brucei brucei, UniProt Q38C91); type: functional, Trypanosoma brucei brucei strain 927/4 GUTat10.1;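 also: Read-out by fluorescence polarization, run as a confirmatory high-throughput counterscreen; potency of MetRS inhibitors measured by reduced AMP formation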
T3 sequence (Q38C91 whole entry): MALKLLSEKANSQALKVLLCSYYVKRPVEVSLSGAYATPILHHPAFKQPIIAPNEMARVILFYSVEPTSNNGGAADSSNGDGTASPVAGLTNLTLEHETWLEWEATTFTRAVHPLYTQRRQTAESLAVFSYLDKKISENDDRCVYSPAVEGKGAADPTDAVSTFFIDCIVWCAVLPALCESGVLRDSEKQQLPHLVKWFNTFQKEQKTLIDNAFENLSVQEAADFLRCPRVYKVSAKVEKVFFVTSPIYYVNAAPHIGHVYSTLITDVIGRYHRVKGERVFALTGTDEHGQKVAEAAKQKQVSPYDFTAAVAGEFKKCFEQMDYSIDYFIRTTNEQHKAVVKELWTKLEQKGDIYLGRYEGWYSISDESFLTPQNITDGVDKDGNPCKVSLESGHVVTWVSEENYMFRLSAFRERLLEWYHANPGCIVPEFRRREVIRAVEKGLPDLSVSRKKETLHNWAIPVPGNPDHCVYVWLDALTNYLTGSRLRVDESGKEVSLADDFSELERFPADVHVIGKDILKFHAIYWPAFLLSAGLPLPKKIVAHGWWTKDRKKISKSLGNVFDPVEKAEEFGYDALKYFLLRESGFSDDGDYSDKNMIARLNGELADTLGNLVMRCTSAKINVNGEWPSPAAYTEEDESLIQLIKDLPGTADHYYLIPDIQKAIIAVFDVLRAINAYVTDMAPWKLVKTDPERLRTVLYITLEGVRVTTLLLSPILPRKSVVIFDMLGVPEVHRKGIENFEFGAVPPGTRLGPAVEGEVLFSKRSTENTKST

[9] = Counterscreen for inhibitors of Trypanosoma brucei methionyl tRNA synthetase (MetRS): Luminescence-based cell-based high throughput dose response assay to identify compounds that are cytotoxic to Jurkat human T lymphocyte cells.; type: functional
[10] = target: 1-phosphatidylinositol 4,5-bisphosphate phosphodiesterase beta-3 (Homo sapiens, UniProt Q01970); assay: Fluorescence-based biochemical high throughput dose response assay to identify inhibitors of phospholipase C isozymes (PLC-B3).
1-phosphatidylinositol 4,5-bisphosphate phosphodiesterase beta-3, sequence (Q01970 whole entry): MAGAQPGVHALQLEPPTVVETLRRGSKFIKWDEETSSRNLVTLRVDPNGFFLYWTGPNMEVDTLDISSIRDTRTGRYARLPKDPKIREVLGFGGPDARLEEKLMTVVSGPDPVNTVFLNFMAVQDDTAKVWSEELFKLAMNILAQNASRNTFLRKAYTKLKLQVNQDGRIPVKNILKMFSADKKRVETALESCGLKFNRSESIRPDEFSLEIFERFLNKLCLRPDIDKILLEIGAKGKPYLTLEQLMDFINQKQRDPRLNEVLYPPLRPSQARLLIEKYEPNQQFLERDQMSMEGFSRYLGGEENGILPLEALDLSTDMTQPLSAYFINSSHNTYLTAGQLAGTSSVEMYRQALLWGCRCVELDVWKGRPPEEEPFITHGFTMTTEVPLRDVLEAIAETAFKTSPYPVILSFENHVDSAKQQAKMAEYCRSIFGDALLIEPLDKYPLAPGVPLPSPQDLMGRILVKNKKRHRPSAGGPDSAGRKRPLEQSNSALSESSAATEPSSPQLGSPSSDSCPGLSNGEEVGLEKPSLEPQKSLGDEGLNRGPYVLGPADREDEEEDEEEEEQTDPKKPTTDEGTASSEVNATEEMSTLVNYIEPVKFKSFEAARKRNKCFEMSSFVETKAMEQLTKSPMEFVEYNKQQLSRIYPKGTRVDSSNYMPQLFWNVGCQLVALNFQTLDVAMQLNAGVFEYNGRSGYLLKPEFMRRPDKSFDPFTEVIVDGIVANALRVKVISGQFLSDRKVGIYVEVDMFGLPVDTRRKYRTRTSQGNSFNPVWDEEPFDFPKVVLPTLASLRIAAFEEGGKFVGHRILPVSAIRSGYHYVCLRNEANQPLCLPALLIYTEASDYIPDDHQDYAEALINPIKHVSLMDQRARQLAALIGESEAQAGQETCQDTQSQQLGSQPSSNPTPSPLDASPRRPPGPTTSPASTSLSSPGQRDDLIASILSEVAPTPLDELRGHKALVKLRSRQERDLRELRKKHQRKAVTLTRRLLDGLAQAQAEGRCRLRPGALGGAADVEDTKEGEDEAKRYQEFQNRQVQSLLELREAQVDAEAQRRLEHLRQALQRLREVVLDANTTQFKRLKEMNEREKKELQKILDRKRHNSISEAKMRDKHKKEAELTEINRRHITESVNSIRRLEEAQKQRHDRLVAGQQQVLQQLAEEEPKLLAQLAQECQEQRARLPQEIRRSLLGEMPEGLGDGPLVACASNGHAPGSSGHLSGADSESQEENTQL

[11] = target: 1-phosphatidylinositol 4,5-bisphosphate phosphodiesterase gamma-1 (Homo sapiens, UniProt P19174); assay: Counterscreen for inhibitors of phospholipase C isozymes (PLC-B3): Fluorescence-based biochemical high throughput dose response assay to identify inhibitors of phospholipase C isozymes (PLC-gamma1).
1-phosphatidylinositol 4,5-bisphosphate phosphodiesterase gamma-1, sequence (P19174 whole entry): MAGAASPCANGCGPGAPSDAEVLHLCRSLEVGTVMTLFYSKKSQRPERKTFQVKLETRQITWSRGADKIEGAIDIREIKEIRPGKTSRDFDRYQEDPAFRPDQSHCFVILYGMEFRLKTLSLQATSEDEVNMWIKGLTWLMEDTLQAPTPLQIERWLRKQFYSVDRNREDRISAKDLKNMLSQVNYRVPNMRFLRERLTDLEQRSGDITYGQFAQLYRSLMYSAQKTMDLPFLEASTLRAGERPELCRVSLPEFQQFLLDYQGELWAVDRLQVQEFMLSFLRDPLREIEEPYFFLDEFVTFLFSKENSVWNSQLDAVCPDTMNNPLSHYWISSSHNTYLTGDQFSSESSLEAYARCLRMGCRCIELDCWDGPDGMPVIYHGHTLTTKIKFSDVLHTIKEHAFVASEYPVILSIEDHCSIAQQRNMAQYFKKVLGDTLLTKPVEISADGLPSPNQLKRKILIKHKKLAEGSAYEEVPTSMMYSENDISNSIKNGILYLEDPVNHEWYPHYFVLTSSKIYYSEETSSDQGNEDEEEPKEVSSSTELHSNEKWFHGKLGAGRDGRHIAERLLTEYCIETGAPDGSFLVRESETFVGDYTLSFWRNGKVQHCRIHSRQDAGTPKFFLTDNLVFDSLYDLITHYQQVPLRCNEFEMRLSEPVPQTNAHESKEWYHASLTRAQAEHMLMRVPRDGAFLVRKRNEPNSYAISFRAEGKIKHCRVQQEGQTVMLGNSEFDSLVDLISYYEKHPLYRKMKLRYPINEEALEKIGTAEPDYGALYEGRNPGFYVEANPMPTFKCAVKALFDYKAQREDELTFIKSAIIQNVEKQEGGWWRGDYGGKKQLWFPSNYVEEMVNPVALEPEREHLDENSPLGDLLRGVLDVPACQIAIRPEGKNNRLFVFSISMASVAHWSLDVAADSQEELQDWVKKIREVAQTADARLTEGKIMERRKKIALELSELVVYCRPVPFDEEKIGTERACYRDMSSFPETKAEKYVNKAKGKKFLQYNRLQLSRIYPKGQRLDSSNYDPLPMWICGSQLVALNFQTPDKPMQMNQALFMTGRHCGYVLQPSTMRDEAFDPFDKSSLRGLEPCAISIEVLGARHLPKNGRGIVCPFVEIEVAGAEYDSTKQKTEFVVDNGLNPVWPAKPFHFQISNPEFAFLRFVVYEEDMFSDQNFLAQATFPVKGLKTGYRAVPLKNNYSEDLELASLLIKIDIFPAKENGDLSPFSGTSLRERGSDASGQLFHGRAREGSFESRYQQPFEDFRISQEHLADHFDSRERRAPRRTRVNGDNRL

Structure (SMILES): CSc1ccc(S(=O)(=O)NC2CC3CCC2C3)cc1 (stereo unspecified)
- AC50 (Vero): 16.8 µM (active)

Structure (SMILES): O=C(NC1CCCC(C(F)(F)F)C1)c1ccc([N+](=O)[O-])o1 (stereo unspecified)
- IC50 (Steroidogenic factor 1): 0.772 µM (active)
- CC50 [1]: 8.8 µM (active)
- AC50 [2]: 11.2 µM (active)
- IC50 [3]: 35.9 µM (inactive)
- IC50 [4]: 23.5 µM (inactive)

Structure (SMILES): CC1=NN(C(=O)c2ccc(Br)cc2)C(O)(C(F)(F)OC(F)(F)F)C1 (stereo unspecified)
- IC50 [5]: 4.84 µM (active)
- IC50 [6]: > 20 µM (inactive)
- EC50 [7]: 46 µM (active)

Structure (SMILES): Cc1cc(Br)cc(Br)c1OCC(=O)NNC(=O)Nc1ccccc1
- IC50 [8]: 119 µM (inactive)
- IC50 [9]: 83.3 µM (inactive)

Structure (SMILES): COC(=O)c1ccc(N2CCCCC2)c(NC(=O)c2ccco2)c1
- IC50 (Steroidogenic factor 1): 3.89 µM (active)
- IC50 [3]: 18.7 µM (inactive)
- IC50 [4]: 6.04 µM (active)

Structure (SMILES): CC(=O)N1C[C@@H](c2c[nH]c3ccccc23)C=C[C@H]1C(=O)NS(=O)(=O)c1ccc(C)cc1
- IC50 [10]: > 122 µM (inactive)
- IC50 [11]: > 4.54 µM (active)
